Several values for one entry are separate records, joined by “and”; a condition that tells them apart may be missing. Identical values can stand only once.
System: BDF1 mice, Adenocarcinoma 755 s.c., tumor weight T/C
Assay: NCI In Vivo Anticancer Drug Screen. Data for tumor model Adenocarcinoma 755 (subcutaneous) in B6D2F1 (BDF1) mice
Settings: endpoint: mean tumor weight, higher = larger tumour
How it was run: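 Tumor-bearing mice receive test compound while controls get vehicle alone. Antitumor effect is scored from survival or tumor dimensions as a T/C quotient.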

[1] = dose: 25.0 mg/kg/injection, schedule: Q01DX011 (ip), vehicle: methylcellulose (MC)
[2] = dose: 50.0 mg/kg/injection, schedule: Q01DX011 (ip), vehicle: methylcellulose (MC)
[3] = dose: 15.0 mg/kg/injection, schedule: Q01DX011 (ip), vehicle: carboxymethylcellulose (CMC)
[4] = dose: 100.0 mg/kg/injection, schedule: Q01DX011 (ip), vehicle: methylcellulose (MC)
[5] = dose: 30.0 mg/kg/injection, schedule: Q01DX011 (ip), vehicle: saline
[6] = dose: 60.0 mg/kg/injection, schedule: Q01DX011 (ip), vehicle: saline
[7] = dose: 120.0 mg/kg/injection, schedule: Q01DX011 (ip), vehicle: saline
[8] = dose: 100.0 mg/kg/injection, schedule: Q01DX011 (ip), vehicle: saline

Cc1nc(Cl)c(C#N)c(C(F)(F)F)c1[N+](=O)[O-] was tested, and the T/C (dose: 30.0 mg/kg/injection, schedule: Q01DX011 (ip), vehicle: carboxymethylcellulose (CMC)) was 59 % of control.

For CN[C@H]1CCc2cc(OC)c(OC)c(OC)c2-c2ccc(OC)c(=O)cc21, the T/C (dose: 0.75 mg/kg/injection, schedule: Q01DX011 (ip), vehicle: methylcellulose (MC)) was 44 % of control, the T/C (dose: 1.5 mg/kg/injection, schedule: Q01DX011 (ip), vehicle: methylcellulose (MC)) was 60 % of control and the T/C (dose: 3.0 mg/kg/injection, schedule: Q01DX011 (ip), vehicle: methylcellulose (MC)) was 56 % of control. The T/C (dose: 6.0 mg/kg/injection, schedule: Q01DX011 (ip), vehicle: methylcellulose (MC)) was 7 % of control.

With CC(=O)[C@H]1CC[C@H]2[C@@H]3C[C@H](F)C4=CC(=O)CC[C@]4(C)[C@H]3C(=O)C[C@]12C the T/C (dose: 3.5 mg/kg/injection, schedule: Q01DX011 (sc), vehicle: steriod suspending solution) was 82 % of control, the T/C (dose: 7.0 mg/kg/injection, schedule: Q01DX011 (sc), vehicle: steriod suspending solution) was 66 % of control and the T/C (dose: 55.0 mg/kg/injection, schedule: Q01DX011 (sc), vehicle: steriod suspending solution) was 15 % of control and 20 % of control. The T/C (dose: 110.0 mg/kg/injection, schedule: Q01DX011 (sc), vehicle: steriod suspending solution) was 13 % of control and 14 % of control and the T/C (dose: 220.0 mg/kg/injection, schedule: Q01DX011 (sc), vehicle: steriod suspending solution) was 3 % of control and 8 % of control.

In the case of COC(=O)C1=COC(C)C2CN3CCc4c([nH]c5cc(OC)ccc45)C3CC12 (centres undefined), the T/C (dose: 22.0 mg/kg/injection, schedule: Q01DX011 (ip), vehicle: other) is reported as 116 % of control, the T/C (dose: 44.0 mg/kg/injection, schedule: Q01DX011 (ip), vehicle: other) is reported as 98 % of control and the T/C (dose: 87.5 mg/kg/injection, schedule: Q01DX011 (ip), vehicle: other) is reported as 80 % of control.

Nc1nc(SCc2ccccc2[N+](=O)[O-])c2ncn(C3OC(CO)C(O)C3O)c2n1 (centres undefined) was tested, and the T/C (dose: 12.5 mg/kg/injection, schedule: Q01DX011 (ip), vehicle: methylcellulose (MC)) was 21 % of control, the T/C [1] was 7 % of control and the T/C [2] was 2 % of control.

CSc1nc(N)nc2c1ncn2Cc1ccccc1 was tested, and the T/C (dose: 75.0 mg/kg/injection, schedule: Q01DX011 (ip), vehicle: methylcellulose (MC)) was 74 % of control, the T/C (dose: 150.0 mg/kg/injection, schedule: Q01DX011 (ip), vehicle: methylcellulose (MC)) was 53 % of control and the T/C (dose: 300.0 mg/kg/injection, schedule: Q01DX011 (ip), vehicle: methylcellulose (MC)) was 64 % of control.

With CCCCCCCCCCCCNCCCCCCCCCCCC the T/C (dose: 2.5 mg/kg/injection, schedule: Q01DX011 (ip), vehicle: other) was 41 % of control.

C=CCOP(=O)(N1CC1CC)N1CC1CC (centres undefined) was tested, and the T/C (dose: 17.0 mg/kg/injection, schedule: Q01DX011 (ip), vehicle: saline) was 69 % of control, the T/C (dose: 33.0 mg/kg/injection, schedule: Q01DX011 (ip), vehicle: saline) was 50 % of control and the T/C (dose: 66.0 mg/kg/injection, schedule: Q01DX011 (ip), vehicle: saline) was 18 % of control.

With CCOC(=O)c1cc[c]([Sb](=[O])([OH])[OH])cc1 the T/C (dose: 12.0 mg/kg/injection, schedule: Q01DX011 (ip), vehicle: methylcellulose (MC)) was 116 % of control, the T/C [3] was 70 % of control and the T/C [2] was 55 % of control. The T/C [4] was 102 % of control.

In the case of Cn1cnc2c(ncn2C2CC(O)C(CO)O2)c1=N (centres undefined), the T/C [5] is reported as 83 % of control, the T/C [6] is reported as 100 % of control and the T/C [7] is reported as 80 % of control. For the same molecule, the T/C (dose: 240.0 mg/kg/injection, schedule: Q01DX011 (ip), vehicle: saline) was 108 % of control.

O=C(Nc1ncnc2nc[nH]c12)C(Cl)Cl was tested, and the T/C [8] was 77 % of control.

In the case of CC1CCC(n2cnc3c([N+](C)(C)C)ncnc32)O1 (centres undefined), the T/C (dose: 15.0 mg/kg/injection, schedule: Q01DX011 (ip), vehicle: saline) is reported as 58 % of control, the T/C [5] is reported as 35 % of control and 40 % of control and the T/C [6] is reported as 5 % of control. For the same molecule, the T/C [7] was 1 % of control.

For CCCCCSc1nc(N)nc2nc[nH]c12, the T/C (dose: 0.04 mg/kg/injection, schedule: Q01DX011 (ip), vehicle: alkali diluted with saline) was 114 % of control, the T/C (dose: 0.08 mg/kg/injection, schedule: Q01DX011 (ip), vehicle: alkali diluted with saline) was 119 % of control and the T/C (dose: 0.16 mg/kg/injection, schedule: Q01DX011 (ip), vehicle: alkali diluted with saline) was 95 % of control. The T/C (dose: 0.32 mg/kg/injection, schedule: Q01DX011 (ip), vehicle: alkali diluted with saline) was 80 % of control, the T/C (dose: 0.63 mg/kg/injection, schedule: Q01DX011 (ip), vehicle: alkali diluted with saline) was 112 % of control and the T/C (dose: 1.25 mg/kg/injection, schedule: Q01DX011 (ip), vehicle: alkali diluted with saline) was 97 % of control. The T/C (dose: 1.5 mg/kg/injection, schedule: Q01DX011 (ip), vehicle: saline) was 79 % of control, the T/C (dose: 2.5 mg/kg/injection, schedule: Q01DX011 (ip), vehicle: alkali diluted with saline) was 85 % of control and the T/C (dose: 3.1 mg/kg/injection, schedule: Q01DX011 (ip), vehicle: saline) was 100 % of control. For the same molecule, the T/C (dose: 5.0 mg/kg/injection, schedule: Q01DX011 (ip), vehicle: alkali diluted with saline) was 106 % of control, the T/C (dose: 6.25 mg/kg/injection, schedule: Q01DX011 (ip), vehicle: saline) was 83 % of control and the T/C (dose: 10.0 mg/kg/injection, schedule: Q01DX011 (ip), vehicle: alkali diluted with saline) was 82 % of control. The T/C (dose: 12.5 mg/kg/injection, schedule: Q01DX011 (ip), vehicle: saline) was 43 % of control, the T/C (dose: 25.0 mg/kg/injection, schedule: Q01DX011 (ip), vehicle: saline) was 47 % of control and the T/C (dose: 50.0 mg/kg/injection, schedule: Q01DX011 (ip), vehicle: saline) was 7 % of control. For the same molecule, the T/C [8] was 3 % of control.

Nc1nc(NC2CCCCC2)cc(=O)[nH]1 was tested, and the T/C [2] was 56 % of control, the T/C [4] was 55 % of control and the T/C (dose: 200.0 mg/kg/injection, schedule: Q01DX011 (ip), vehicle: methylcellulose (MC)) was 51 % of control. For the same molecule, the T/C (dose: 400.0 mg/kg/injection, schedule: Q01DX011 (ip), vehicle: methylcellulose (MC)) was 33 % of control.

With Nc1nc(SCCc2ccccc2)c2[nH]cnc2n1 the T/C (dose: 31.25 mg/kg/injection, schedule: Q01DX011 (ip), vehicle: carboxymethylcellulose (CMC)) was 106 % of control, the T/C (dose: 50.0 mg/kg/injection, schedule: Q01DX011 (ip), vehicle: carboxymethylcellulose (CMC)) was 97 % of control and the T/C (dose: 62.5 mg/kg/injection, schedule: Q01DX011 (ip), vehicle: carboxymethylcellulose (CMC)) was 52 % of control. The T/C (dose: 100.0 mg/kg/injection, schedule: Q01DX011 (ip), vehicle: carboxymethylcellulose (CMC)) was 81 % of control, the T/C (dose: 125.0 mg/kg/injection, schedule: Q01DX011 (ip), vehicle: carboxymethylcellulose (CMC)) was 19 % of control and the T/C (dose: 200.0 mg/kg/injection, schedule: Q01DX011 (ip), vehicle: carboxymethylcellulose (CMC)) was 74 % of control. The T/C (dose: 250.0 mg/kg/injection, schedule: Q01DX011 (ip), vehicle: carboxymethylcellulose (CMC)) was 6 % of control, the T/C (dose: 400.0 mg/kg/injection, schedule: Q01DX011 (ip), vehicle: carboxymethylcellulose (CMC)) was 75 % of control and the T/C (dose: 800.0 mg/kg/injection, schedule: Q01DX011 (ip), vehicle: carboxymethylcellulose (CMC)) was 22 % of control.

With Nc1ncnc2c1ncn2C(C=O)OC(C=O)CO (centres undefined) the T/C [3] was 93 % of control.

Cn1c(=O)c2[nH]c(CCl)nc2n(C)c1=O was tested, and the T/C [1] was 86 % of control.

In the case of CN(C)[C@@H]1C(=O)C(C(=O)NCNCCCC(=O)O)=C(O)[C@@]2(O)C(=O)C3=C(O)c4c(O)cccc4[C@@](C)(O)[C@H]3C[C@@H]12, the T/C (dose: 87.5 mg/kg/injection, schedule: Q01DX011 (ip), vehicle: saline) is reported as 106 % of control and 115 % of control, the T/C (dose: 175.0 mg/kg/injection, schedule: Q01DX011 (ip), vehicle: saline) is reported as 54 % of control and 78 % of control and the T/C (dose: 350.0 mg/kg/injection, schedule: Q01DX011 (ip), vehicle: saline) is reported as 51 % of control and 52 % of control.

With CC(=O)Nc1cc2c(cc1Br)-c1ccccc1C2O (centres undefined) the T/C (dose: 35.0 mg/kg/injection, schedule: Q01DX011 (ip), vehicle: saline) was 43 % of control, the T/C (dose: 75.0 mg/kg/injection, schedule: Q01DX011 (ip), vehicle: saline) was 52 % of control and the T/C (dose: 155.0 mg/kg/injection, schedule: Q01DX011 (ip), vehicle: saline) was 38 % of control. The T/C (dose: 210.0 mg/kg/injection, schedule: Q01DX011 (ip), vehicle: saline) was 23 % of control.
